Assay results reported in patent publication US20200341000A1, “METHOD OF SCREENING COMPOUNDS FOR TREATING CNS DISORDERS” (SAGE THERAPEUTICS, INC., priority 2017, published 2020).
Read-outs that look alike come from different tables or passages of the source.

Tests used:
[1] = target: T1, α4β3δ GABAA receptors (Homo sapiens, UniProt O14764+P28472+P48169); assay: Whole-cell patch clamp, potentiation of GABA EC20 currents at recombinant extrasynaptic-type receptors (CHO cells); assay type: cell-based
T1 construct: expressed in transfected cells; host or cells: CHO cells (transient transfection, Lipofectamine)
T1 sequence (P48169 36-554): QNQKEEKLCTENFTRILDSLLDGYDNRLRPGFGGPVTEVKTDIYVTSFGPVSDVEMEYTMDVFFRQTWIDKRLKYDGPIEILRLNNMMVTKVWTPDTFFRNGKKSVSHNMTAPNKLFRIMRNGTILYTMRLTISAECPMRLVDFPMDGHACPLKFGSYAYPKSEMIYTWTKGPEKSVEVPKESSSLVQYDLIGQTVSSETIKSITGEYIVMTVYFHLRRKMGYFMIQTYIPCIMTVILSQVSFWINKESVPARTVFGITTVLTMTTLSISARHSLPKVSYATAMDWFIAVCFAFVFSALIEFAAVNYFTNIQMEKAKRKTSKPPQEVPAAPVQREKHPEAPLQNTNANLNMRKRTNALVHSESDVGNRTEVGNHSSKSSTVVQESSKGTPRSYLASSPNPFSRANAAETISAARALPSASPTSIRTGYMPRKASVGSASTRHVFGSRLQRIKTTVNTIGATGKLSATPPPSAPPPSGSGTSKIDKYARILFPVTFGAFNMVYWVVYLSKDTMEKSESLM
T1 sequence (P28472 26-473): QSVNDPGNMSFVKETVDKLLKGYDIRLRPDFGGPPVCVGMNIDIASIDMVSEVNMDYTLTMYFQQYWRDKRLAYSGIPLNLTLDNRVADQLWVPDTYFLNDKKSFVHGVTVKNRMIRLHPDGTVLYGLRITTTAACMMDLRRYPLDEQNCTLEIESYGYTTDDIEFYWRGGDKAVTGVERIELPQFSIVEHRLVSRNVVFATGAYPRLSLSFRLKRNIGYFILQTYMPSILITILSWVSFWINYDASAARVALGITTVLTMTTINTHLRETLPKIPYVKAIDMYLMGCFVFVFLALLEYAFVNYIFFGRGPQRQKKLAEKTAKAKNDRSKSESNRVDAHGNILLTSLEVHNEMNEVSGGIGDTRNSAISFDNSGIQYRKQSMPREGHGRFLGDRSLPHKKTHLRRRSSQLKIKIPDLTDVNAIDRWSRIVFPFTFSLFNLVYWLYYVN
T1 sequence (O14764 25-452): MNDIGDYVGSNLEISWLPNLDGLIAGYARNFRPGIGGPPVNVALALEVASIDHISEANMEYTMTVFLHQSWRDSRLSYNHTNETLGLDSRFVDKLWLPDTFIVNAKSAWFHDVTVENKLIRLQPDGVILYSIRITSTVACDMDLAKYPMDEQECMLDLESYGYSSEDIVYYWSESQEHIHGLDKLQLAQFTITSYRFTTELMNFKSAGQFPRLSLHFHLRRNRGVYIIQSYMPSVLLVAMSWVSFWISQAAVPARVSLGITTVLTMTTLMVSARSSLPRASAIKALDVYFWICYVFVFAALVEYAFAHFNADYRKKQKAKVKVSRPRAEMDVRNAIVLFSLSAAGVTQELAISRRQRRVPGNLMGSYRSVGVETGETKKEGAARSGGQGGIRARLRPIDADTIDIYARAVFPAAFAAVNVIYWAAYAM
Experimental: Cellular electrophysiology was used to measure the pharmacological properties of ALLO, ganaxolone and SGE-516 in heterologous cell systems. Compounds were tested for their ability to affect GABA mediated currents at a submaximal agonist dose (GABA EC20=2 μM).
LTK cells were stably transfected with the α1β2γ2 subunits of the GABA receptor and CHO cells are transiently transfected with the α4β3γ subunits via the Lipofecatamine method. Cells were passaged at a confluence of about 50-80% and then seeded onto 35 mm sterile culture dishes containing 2 ml culture complete medium without antibiotics or antimycotics. Cells were cultivated at a density that enabled the recording of single cells without visible connections to other cells.
Whole-cell currents were measured with HEKA EPC-10 amplifiers using PatchMaster software. Bath solution for all experiments contained (in mM): NaCl 137, KCl 4, CaCl2 1.8, MgCl2 1, HEPES 10, D-Glucose 10, pH 7.4 with NaOH. Intracellular (pipette) solution contained (in mM): KCl 130, MgCl2 1, Mg-ATP 5, HEPES 10, EGTA 5, pH 7.2 with KOH. During experiments, cells and solutions were maintained at room temperature (19° C.-30° C.). For manual patchclamp recordings, cell culture dishes were placed on the dish holder of the microscope and continuously perfused (1 ml/min) with bath solution. After formation of a Gigaohm seal between the patch electrode and the cell (pipette resistance range: 2.5 MΩ-6.0MΩ; seal resistance range: >1 GΩ) the cell membrane across the pipette tip was ruptured to assure electrical access to the cell interior (whole-cell patch configuration).
Cells were voltage-clamped at a holding potential of −80 mV. GABAA receptors were activated by 2 μM GABA and compounds were sequentially applied at increasing concentrations for 30 s prior to a 2 s application of GABA. GABA and compounds were applied to cells via the Dynaflow perfusion system (Cellectricon, Sweden). Test compounds were dissolved in DMSO to form 10 mM stock solution and serially diluted to 0.01, 0.1, 1, and 10 μM in bath solution. […] All concentrations of test compound were tested on each cell. The relative percentage potentiation was defined as the peak amplitude in response to GABA EC20 in the presence of test compound divided by the peak amplitude in response to GABA EC20 alone, multiplied by 100.
ALLO and ganaxolone are known PAMs of both synaptic and extrasynaptic GABAAR-mediated currents. […] The α1β2γ2 or α4β3δ subunit combinations were chosen as representatives of typical synaptic and extrasynaptic GABAA receptors respectively.

[2] = tested on: GABAA receptor β3 subunit S408/9 phosphorylation; assay: Immunoblot of β3 S408/9 phosphorylation in hippocampal slices; assay type: cell-based, mice; details: 100 nM, 20 min, acute hippocampal slices
Experimental: Hippocampi were dissected out of acute slices from 8 to 12 week old C57/B16 mice and lysed with phosphate buffer including: 20 mM Tris-HCl, 150 mM NaCl, 5 mM EDTA, 10 mM NaF, 2 mM Na3VO4, 10 mM pyrophosphate, 0.1% SDS and 1% Triton after drug treatment. The β3 subunit was isolated using immunoprecipitation with β3 antibodies, after correction for protein content and the specific activity of labeling. Results were attained by SDS/PAGE followed by autoradiography (Abramian et al., 2010). For biotinylation experiments hippocampi were dissected out of acute slices from 8 to 12 week old C57/B16 mice and incubated in artificial cerebrospinal fluid (ACSF) described above at 30° C. for 1 h for recovery before experimentation. Slices were then placed on ice and incubated for 30 min with 1 mg/mL NHS-SS-biotin (Pierce). Excess biotin was removed by a 50 mM glycine quenching buffer, followed by washing of slices three times in ice-cold ACSF. The tissue was snap frozen on dry ice for 5 min, thawed at 4° C. and lysed. The lysates were solubilized with 2% Triton at 4° C. on a rotating wheel for 1 h. The insoluble material was removed by centrifugation, and 350-500 μg of protein lysate were incubated with NeutrAvidin beads (Pierce) for 18-24 h at 4° C. Bound material was eluted with sample buffer and subjected to SDS/PAGE and then immunoblotted with the indicated antibodies. Blots were then quantified using the CCD-based ChemiDoc XRS ? system. Antibodies against the β3 subunit and the phospho-β3 antibody were generated and verified by the laboratory of S.J.M. (Vien et al., 2015).
To produce antibodies specific for phosphorylated S443, rabbits were injected with a synthetic peptide corresponding to residues […] of the murine α4 subunit in which the serine residue corresponding to S443 was chemically phosphorylated; […]. Hippocampal slices were treated with vehicle (Con), or SGE-516 for 20 min. Slices were immunoblotted with pS408/9, β3, or actin antibodies. The ratio of pS408/9/β3 immunoreactivity was then normalized to control slices (100%=the line).
Hippocampal slices were treated with 100 nM ALLO or P4 (progesterone), and S408/9 phosphorylation was then determined as detailed above, n=4 slices (FIG. 18D). Hippocampal slices were treated with 100 nM ORG (FIG. 18E). S408/9 phosphorylation was examined using immunoblotting.

[3] = tested on: sIPSCs in DGGCs (mutant mice); assay: Decay time of sIPSCs in DGGCs of mutant mice; assay type: cell-based; details: 100 nM
Experimental: The ability of 100 nM ALLO to modulate the decay time of sIPSCs was compared in DGGCs from WT and S940A mice as detailed in FIG. 2.

[4] = tested on: plasma membrane GABAARs containing the α4 and β3 subunits (S408/9A mutant); assay: Biotinylation, surface/total GABAAR subunits in hippocampal slices of S408/9A mice; assay type: cell-based; details: 100 nM, 20 min
Experimental: Consistent with the examples above, hippocampal slices from WT and S408/9A mice were treated for 20 min with 100 nM SGE-516 or vehicle (Con) and subjected to biotinylation followed by immunoblotting with β3 and α4 subunit antibodies. The ratio of surface/total (S/T) immunoreactivity was then normalized to levels seen in control (100%).

[5] = tested on: phosphorylation of S443 (α4) and S408/9 (β3); assay: Phosphorylation of GABAAR subunits in brain after IP injection; assay type: in vivo, mice; details: 5 mg/kg IP, 30 min after treatment
Experimental: C57/B16 mice injected with SGE-516 (5 mg/kg IP), or vehicle. 30 min after the treatment mice were sacrificed by microwave irradiation. SDS-soluble hippocampal extracts were then immunoblotted with pS443, α4, pS408/9, or β3 subunit antibodies.

[6] = relative percentage potentiation of GABA EC20 peak current, n = 3

Row | Structure (SMILES) | EC50 [1] | Emax ([1]; CHO, relative percentage potentiation of GABA EC20 peak current, n = 3, read-out: Emax ± S.E.M., α4β3δ) | Emax ± S.E.M., α4β3δ [1, 6] | β3 S408/409 phosphorylation (p-β3/T-β3) [2] | decay time of sIPSCs [3] | pEC50 ± S.E.M., α4β3δ ([1]; GABA EC20 (2 μM), n = 3) | EC50 ([1]; GABA EC20 (2 μM), n = 3, read-out: EC50, potentiation of GABA current, α4β3δ) | increase of plasma membrane levels of GABAARs containing α4 and β3 subunits [4] | phosphorylation of S443 and S408/9 in the brains [5]
1 | CC(=O)[C@H]1CC[C@H]2[C@@H]3CC[C@H]4C[C@H](O)CC[C@]4(C)[C@H]3CC[C@]12C [ALLO, Allopregnanolone] | 57 nM | 426% | 426 ± 42% | increases | did not increase |  |  |  | 
2 | C[C@@]1(O)CC[C@H]2[C@H](CC[C@@H]3[C@@H]2CC[C@]2(C)[C@@H](C(=O)Cn4nccn4)CC[C@@H]32)C1 [SGE-516] |  |  | 505 ± 19% | increases |  | 6.7 ± 0.1 | 193 nM | not seen | increased
